Data: patent publication US9795607B2, “Substituted pyrrolopyrimidine compounds, compositions thereof, and methods of treatment therewith” (Signal Pharmaceutical, LLC, priority 2013, dated 2017)
pIC50: −log10 of the molar value.

Tested on: Triple negative breast cancer cell line CAL51
Assay: Cell Titer Glo proliferation assay, CAL51
Assay type: cell-based
Settings: Homo sapiens, CAL-51; CAL51 cell proliferation (Table 1); read-out: Act. Level
Description: Cell Titer Glo Proliferation Assay.
Triple negative breast cancer cell line CAL51 was purchased from DSMZ. […] Allcell lines were maintained in growth media consisting of 90% high glucose Dulbecco's Modified Eagle Medium or RPMI1640 (Invitrogen), 10% fetal bovine serum (Hyclone), and 2 mM L-glutamine (Invitrogen). […] After overnight culture, compound stock (30 mM) was diluted serially in DMSO, further diluted in growth media, and was added to each well as a 10× concentrated solution in a volume of 11 μL, mixed, and allowed to incubate with cells. The compound vehicle (DMSO) was maintained at a final concentration of 0.2% in all wells. After 72 h, 100 μL of Cell Titer Glo solution (Promega) was added to each well of the 96-well plate. The plate was placed on a shaker for 2 minutes. After 10 minutes incubation, the luminescence signal was detected with Envision microplate reader (Perkin Elmer).

pIC50 | Compound
5.00 to 6.00 | COc1nc(Nc2ccc(C(=O)N(C)C)cc2C)nc2[nH]cc(-c3ccc4c(c3)nc(C)n4C)c12 [Example 410, 4-(5-(1,2-dimethyl-1H-benzo[d]imidazol-5-yl)-4-methoxy-7H-pyrrolo[2,3-d]pyrimidin-2-ylamino)-N,N,3-trimethylbenzamide]
> 7.00 | CNC(=O)c1ccc(-c2c[nH]c3nc(Nc4ccc(C(=O)NC)cc4Cl)nc(OC(C)C)c23)cc1 [Example 432, 3-chloro-4-(4-isopropoxy-5-(4-(methylcarbamoyl)phenyl)-7H-pyrrolo[2,3-d]pyrimidin-2-ylamino)-N-methylbenzamide]
> 7.00 | CNC(=O)c1ccc(-c2c[nH]c3nc(Nc4ccc(C(=O)NC)cc4Cl)nc(NC4CCOCC4)c23)cc1 [Example 433, 3-chloro-N-methyl-4-(5-(4-(methylcarbamoyl)phenyl)-4-(tetrahydro-2H-pyran-4-ylamino)-7H-pyrrolo[2,3-d]pyrimidin-2-ylamino)benzamide]
5.00 to 6.00 | COc1cc(C(=O)NC2COC2)ccc1Nc1nc(OC)c2c(-c3cn(C)nc3Cl)c[nH]c2n1 [Example 417, 4-(5-(3-chloro-1-methyl-1H-pyrazol-4-yl)-4-methoxy-7H-pyrrolo[2,3-d]pyrimidin-2-ylamino)-3-methoxy-N-(oxetan-3-yl)benzamide]
5.00 to 6.00 | COc1nc(Nc2ccnn2C)nc2[nH]cc(-c3ccncc3)c12 [Example 401, 4-methoxy-N-(1-methyl-1H-pyrazol-5-yl)-5-(pyridin-4-yl)-7H-pyrrolo[2,3-d]pyrimidin-2-amine]
> 7.00 | Cc1nc2ccc(-c3c[nH]c4nc(Nc5ccc(C(=O)NCCO)cc5Cl)nc(OC5CCOCC5)c34)cc2o1 [Example 431, 3-chloro-N-(2-hydroxyethyl)-4-(5-(2-methylbenzo[d]oxazol-6-yl)-4-(tetrahydro-2H-pyran-4-yloxy)-7H-pyrrolo(2,3-d]pyrimidin-2-ylamino)benzamide]
6.00 to 6.40 | COc1cc(C(=O)N(C)C)ncc1Nc1nc(OC)c2c(-c3ccnc(F)c3)c[nH]c2n1 [Example 415, 5-(5-(2-fluoropyridin-4-yl)-4-methoxy-7H-pyrrolo[2,3-d]pyrimidin-2-ylamino)-4-methoxy-N,N-dimethylpicolinamide]
> 7.00 | CNC(=O)c1ccc(-c2c[nH]c3nc(Nc4ccc(C(=O)NC)cc4Cl)nc(OC)c23)cc1 [Example 428, 3-chloro-4-(4-methoxy-5-(4-(methylcarbamoyl)phenyl)-7H-pyrrolo[2,3-d]pyrimidin-2-ylamino)-N-methylbenzamide]
> 7.00 | CNC(=O)c1ccc(Nc2nc(NC3CCOCC3)c3c(-c4ccc5nc(C)oc5c4)c[nH]c3n2)c(Cl)c1 [Example 430, 3-chloro-N-methyl-4-(5-(2-methylbenzo[d]oxazol-6-yl)-4-(tetrahydro-2H-pyran-4-ylamino)-7H-pyrrolo[2,3-d]pyrimidin-2-ylamino)benzamide]

Same assay, conditions: Homo sapiens, CAL-51; CAL51 cell proliferation, Cell Titer Glo; read-out: Act. Level

pIC50 | Compound
5.00 to 6.00 | COc1nc(Nc2ccc(C(=O)N(C)C)cc2C)nc2[nH]cc(-c3ccc(F)cc3)c12 [Example 390, 4-(5-(4-fluorophenyl)-4-methoxy-7H-pyrrolo[2,3-d]pyrimidin-2-ylamino)-N,N,3-trimethylbenzamide]
> 7.00 | Cc1nc2ccc(-c3c[nH]c4nc(Nc5cnn(C6CCOCC6)c5Cl)nc(OC5CCCC5)c34)cc2o1 [Example 377, N-(5-chloro-1-(tetrahydro-2H-pyran-4-yl)-1H-pyrazol-4-yl)-4-(cyclopentyloxy)-5-(2-methylbenzo[d]oxazol-6-yl)-7H-pyrrolo[2,3-d]pyrimidin-2-amine]
5.00 to 6.00 | COCCOc1nc(Nc2ccc(C(=O)NC3CN(C)C3)cc2OC)nc2[nH]cc(-c3ccc4nc(C)oc4c3)c12 [Example 386, 3-methoxy-4-(4-(2-methoxyethoxy)-5-(2-methylbenzo[d]oxazol-6-yl)-7H-pyrrolo[2,3-d]pyrimidin-2-ylamino)-N-(1-methylazetidin-3-yl)benzamide]
6.40 to 7.00 | CNC(=O)c1ccc(-c2c[nH]c3nc(Nc4ccc(C(=O)NC5CN(C)C5)cc4OC)nc(OC4CCOCC4)c23)cc1 [Example 366, 3-methoxy-N-(1-methylazetidin-3-yl)-4-(5-(4-(methylcarbamoyl)phenyl)-4-(tetrahydro-2H-pyran-4-yloxy)-7H-pyrrolo[2,3-d]pyrimidin-2-ylamino)benzamide]
> 7.00 | CNC(=O)c1ccc(-c2c[nH]c3nc(Nc4ccc(C(=O)NC5CN(C)C5)cc4OC)nc(OC(C)C)c23)cc1 [Example 357, 4-(4-isopropoxy-5-(4-(methylcarbamoyl)phenyl)-7H-pyrrolo[2,3-d]pyrimidin-2-ylamino)-3-methoxy-N-(1-methylazetidin-3-yl)benzamide]
6.40 to 7.00 | Cc1nc2ccc(-c3c[nH]c4nc(Nc5cnn(C(C)C)c5Cl)nc(OC5CCCC5)c34)cc2o1 [Example 351, N-(5-chloro-1-isopropyl-1H-pyrazol-4-yl)-4-(cyclopentyloxy)-5-(2-methylbenzo[d]oxazol-6-yl)-7H-pyrrolo[2,3-d]pyrimidin-2-amine]
6.40 to 7.00 | CNC(=O)c1ccc(Nc2nc(OC)c3c(-c4ccc5c(C)noc5c4)c[nH]c3n2)c(OC)c1 [Example 388, 3-methoxy-4-(4-methoxy-5-(3-methylbenzo[d]isoxazol-6-yl)-7H-pyrrolo[2,3-d]pyrimidin-2-ylamino)-N-methylbenzamide]
5.00 to 6.00 | CNC(=O)c1ccc(Nc2nc(OC3CCCC3)c3c(-c4cccc(C#N)c4)c[nH]c3n2)c(OC)c1 [Example 324, 4-(5-(3-cyanophenyl)-4-(cyclopentyloxy)-7H-pyrrolo[2,3-d]pyrimidin-2-ylamino)-3-methoxy-N-methylbenzamide]
6.40 to 7.00 | COc1cc(C(=O)NC2CN(C)C2)ccc1Nc1nc(OC2CCC(C)(O)CC2)c2c(-c3ccc4nc(C)oc4c3)c[nH]c2n1 (centres unmarked) [Example 358, 4-(4-((1s,4s)-4-hydroxy-4-methylcyclohexyloxy)-5-(2-methylbenzo[d]oxazol-6-yl)-7H-pyrrolo[2,3-d]pyrimidin-2-ylamino)-3-methoxy-N-(1-methylazetidin-3-yl)benzamide]
6.40 to 7.00 | COc1cc(C(=O)NC2COC2)ccc1Nc1nc(OC)c2c(-c3ccnc(Cl)c3)c[nH]c2n1 [Example 394, 4-(5-(2-chloropyridin-4-yl)-4-methoxy-7H-pyrrolo[2,3-d]pyrimidin-2-ylamino)-3-methoxy-N-(oxetan-3-yl)benzamide]
> 7.00 | COc1cc(C(=O)N(C)C)ccc1Nc1nc(OC)c2c(-c3ccncc3)c[nH]c2n1 [Example 392, 3-methoxy-4-(4-methoxy-5-(pyridin-4-yl)-7H-pyrrolo[2,3-d]pyrimidin-2-ylamino)-N,N-dimethylbenzamide]
> 7.00 | COc1cc(-c2c[nH]c3nc(Nc4ccc(C(=O)NC5COC5)cc4OC)nc(OC)c23)ccn1 [Example 389, 3-methoxy-4-(4-methoxy-5-(2-methoxypyridin-4-yl)-7H-pyrrolo[2,3-d]pyrimidin-2-ylamino)-N-(oxetan-3-yl)benzamide]
5.00 to 6.00 | CNC(=O)c1ccc(Nc2nc(OC3CCCC3)c3c(-c4ccc(C(=O)OC)cc4)c[nH]c3n2)c(OC)c1 [Example 318, methyl 4-(4-(cyclopentyloxy)-2-(2-methoxy-4-(methylcarbamoyl)phenylamino)-7H-pyrrolo[2,3-d]pyrimidin-5-yl)benzoate]
6.40 to 7.00 | COc1cc(C(=O)NC2CN(C)C2)ccc1Nc1nc(OC2CCCC2)c2c(-c3ccc(-c4ncc[nH]4)cc3)c[nH]c2n1 [Example 361, 4-(5-(4-(1H-imidazol-2-yl)phenyl)-4-(cyclopentyloxy)-7H-pyrrolo[2,3-d]pyrimidin-2-ylamino)-3-methoxy-N-(1-methylazetidin-3-yl)benzamide]
6.40 to 7.00 | CNC(=O)c1ccc(-c2c[nH]c3nc(Nc4ccc(C(=O)NC5COC5)cc4OC)nc(OC4COC4)c23)cc1 [Example 359, 3-methoxy-4-(5-(4-(methylcarbamoyl)phenyl)-4-(oxetan-3-yloxy)-7H-pyrrolo[2,3-d]pyrimidin-2-ylamino)-N-(oxetan-3-yl)benzamide]
5.00 to 6.00 | CNC(=O)c1ccc(Nc2nc(OC3CCCC3)c3c(-c4ccc(F)cc4C)c[nH]c3n2)c(OC)c1 [Example 319, 4-(4-(cyclopentyloxy)-5-(4-fluoro-2-methylphenyl)-7H-pyrrolo[2,3-d]pyrimidin-2-ylamino)-3-methoxy-N-methylbenzamide]
6.40 to 7.00 | CCn1ncc(Nc2nc(OC3CCCC3)c3c(-c4ccc5nc(C)oc5c4)c[nH]c3n2)c1Cl [Example 385, N-(5-chloro-1-ethyl-1H-pyrazol-4-yl)-4-(cyclopentyloxy)-5-(2-methylbenzo[d]oxazol-6-yl)-7H-pyrrolo[2,3-d]pyrimidin-2-amine]
6.40 to 7.00 | COc1cc(C(=O)NC2COC2)ccc1Nc1nc(OC)c2c(-c3ccncc3)c[nH]c2n1 [Example 347, 3-methoxy-4-(4-methoxy-5-(pyridin-4-yl)-7H-pyrrolo[2,3-d]pyrimidin-2-ylamino)-N-(oxetan-3-yl)benzamide]

Compound | pIC50
CNC(=O)c1ccc(-c2c[nH]c3nc(Nc4ccc(C(=O)NC5COC5)cc4OC)nc(OC4CC(F)(F)C4)c23)cc1 [Example 345, 4-(4-(3,3-difluorocyclobutoxy)-5-(4-(methylcarbamoyl)phenyl)-7H-pyrrolo[2,3-d]pyrimidin-2-ylamino)-3-methoxy-N-(oxetan-3-yl)benzamide] | > 7.00
CNC(=O)c1ccc(-c2c[nH]c3nc(Nc4ccc(C(=O)NC5COC5)cc4OC)nc(OC4CCC4)c23)cn1 [Example 352, 5-(4-cyclobutoxy-2-(2-methoxy-4-(oxetan-3-ylcarbamoyl)phenylamino)-7H-pyrrolo[2,3-d]pyrimidin-5-yl)-N-methylpicolinamide] | 5.00 to 6.00
